Data as given in PMC8619914, “Development of Novel Peptides for the Antimicrobial Combination Therapy against Carbapenem-Resistant Acinetobacter baumannii Infection” (Pharmaceutics, 2021).

Columns and labels:
CRAB C3 = assay: microbe, parasite or virus in culture; conditions: MH media, 2 × 10^5 CFU·mL^−1, 37 °C, 16 h, absorbance 600 nm
Description: (§1) The Gram-negative bacterial strain Escherichia coli (KCTC 1682) and Gram-positive bacterial strain Staphylococcus aureus (KCTC 1621) were purchased from the Korean Collection for Type Cultures (Jeongeup, Korea). Acinetobacter baumannii (KCCM 40203) were purchased from Korea Culture Center of Microorganisms (Seoul, Korea). Additionally, five carbapenem-resistant Acinetobacter baumanii C1–C5 (CRAB C1–C5), which have the OXA-23 gene with carbapenem-resistance were collected from the patients with CRAB bacteremia, who presented symptoms and signs of infection at Korea University Anam Hospital (Seoul, Korea) (IRB registration no. 2020AN0157). The minimum inhibitory concentrations (MIC) of the AMP and antibiotics against the various bacterial strains were assessed using the serial dilution method on Muller–Hinton (MH) media, as described previously. […] Absorbance at 600 nm was measured using a SpectraMAX microplate reader (Molecular Devices, San Jose, CA, USA).
(§2) Measurement of the minimum inhibitory concentrations (MIC) was conducted to determine the effect of the hydrophobicity of each antimicrobial peptide on its antimicrobial activity. MIC was defined as the minimum concentration that killed more than 99% of bacteria; it was measured against two standard Gram-negative bacteria (E. coli and A. baumanii), five clinically isolated CRAB (C1–C5), and one Gram-positive bacteria (S. aureus).

CRAB C5 = assay: microbe, parasite or virus in culture; conditions: MH media, 2 × 10^5 CFU·mL^−1, 37 °C, 16 h, absorbance 600 nm
Description: as §1, §2

CRAB C1 [1] = assay: microbe, parasite or virus in culture; conditions: 16 h
Description: as §1, §2

CRAB C2 = assay: microbe, parasite or virus in culture; conditions: MH media, 2 × 10^5 CFU·mL^−1, 37 °C, 16 h, absorbance 600 nm
Description: as §1, §2

CRAB C4 = assay: microbe, parasite or virus in culture; conditions: MH media, 2 × 10^5 CFU·mL^−1, 37 °C, 16 h, absorbance 600 nm
Description: as §1, §2

[2] = test system: Acinetobacter baumannii (KCCM 40203); assay: microbe, parasite or virus in culture; conditions: 16 h
Description: as §1, §2

HEK-293 cells = assay: Cytotoxicity, WST-8 Cell Proliferation Assay; assay type: cell-based, human; conditions: at its MIC, 24 h and 48 h
Method: (§3) Human embryonic kidney (HEK)-293 cells, purchased from Korean cell line bank (Seoul, Korea) were cultured in Dulbecco’s modified Eagle’s medium (DMEM) (Welgene, Gyeong-san, Korea) with 10% fetal bovine serum, 1% penicillin-streptomycin at 37 °C in a humidified 5% CO2 incubator as described previously. The cytotoxicity of the six PapMA peptides and melittin was determined using WST-8 Cell Proliferation Assay Kit (Biomax Co, Ltd., Seoul, Korea), according to the manufacturer’s instructions. […] The absorbance was measured at 450 nm using a SpectraMAX microplate reader (Molecular Devices).
Figure 4 Cytotoxicity of PapMA analogs. (A) Cytotoxicity of PapMA and its analogs against HEK-293 cell. […] (B) Hemolysis activity of PapMA analogs against sRBC. The peptide was serially diluted and incubated with sRBC for 1 h with melittin as a control. Statistical analysis was performed using two-way ANOVA with Dunnett’s comparison test. The values are expressed as the mean ± SEM of three independent experiments and are statistically significant at ** p < 0.01; and *** p < 0.001. ns, not significant.

intact CRAB C1 = assay: Membrane depolarization, diSC3-5, intact cells; assay type: cell-based, carbapenem-resistant Acinetobacter baumannii; conditions: peptide 4 μg·mL^−1, 100% = 1% triton X-100
Method: The membrane depolarization activity of each AMPs at varying concentrations (1–16 μg·mL^−^1) against CRAB C1 intact cells were measured using 3,3′-dipropylthiadicarbocyanine iodide (diSC3-5). CRAB C1 was washed two times in washing buffer (5 mM HEPES, 20 mM glucose, pH 7.4), the experiment buffer was changed (5 mM HEPES, 20 mM glucose, 0.1 M KCl, pH 7.4), and diSC3-5 dye was added. As a control, 100% depolarization was obtained by treating CRAB C1 with 1% triton X-100 [33]. Spheroplast cells were prepared by the osmotic shock, as previously described. […] The corresponding fluorescent were measured using RF-6000PC fluorescent spectrophotometer (Shimadzu Scientific Instruments, Kyoto, Japan).
Figure 3 CRAB C1 membrane destruction caused by PapMA analogs. The concentration dependent depolarization of (A) intact CRAB C1 and its (B) spheroplast induced by PapMA and its analogs, determined using the membrane potential-sensitive fluorescent dye diSC3-5. Dye release was monitored by measuring fluorescence, at an excitation wavelength of 654 nm and an emission wavelength of 670 nm.

HaCaT cells = assay: Cytotoxicity, WST-8 Cell Proliferation Assay; assay type: cell-based, human; conditions: at its MIC, 24 h and 48 h
Method: as §3
Figure 10 Cytotoxicity of PapMA-3 (A) Cytotoxicity of PapMA-3 against HEK-293 cells at 24 h and 48 h. (B) Cytotoxicity of PapMA-3 against HaCaT cell at 24 h and 48 h. Statistical analysis was performed using two-way ANOVA with Dunnett’s comparison test. The values are expressed as the mean ± SEM of three independent experiments and are statistically significant at * p < 0.05; *** p < 0.001; ns, not significant.

[3] = test system: Gram-negative bacterial strains; assay: organism not typed
Description: as §1
Geometric means (GM) were calculated to compare the relative antimicrobial activities of the analogs against Gram-negative bacteria. […] Next, the antibacterial mechanisms of peptides were investigated.

A. baumannii = conditions: 50% human serum in MH medium, 16 h, 37 °C; measure of serum stability
Method: (§4) Antibacterial activity of PapMA-3 in combination with imipenem was measured against CRAB C1 in the presence of 50% human serum. The treated cells were incubated for 16 h at 37 °C, and the absorbance at 600 nm was measured using a SpectraMAX microplate reader (Molecular Devices).

CRAB C1 [4] = test system: CRAB C1
Method: as §4

[5] = MH media, 2 × 10^5 CFU·mL^−1, 37 °C, absorbance 600 nm

With CC[C@H](C)[C@H](NC(=O)CN)C(=O)NCC(=O)N[C@@H](C)C(=O)N[C@H](C(=O)N[C@@H](CC(C)C)C(=O)N[C@@H](CCCCN)C(=O)N[C@H](C(=O)N[C@@H](CC(C)C)C(=O)N[C@H](C(=O)N[C@H](C(=O)NCC(=O)N[C@@H](CC(C)C)C(=O)N1CCC[C@H]1C(=O)N[C@@H](C)C(=O)N[C@@H](CC(C)C)C(=O)N[C@H](C(=O)N[C@@H](CO)C(=O)N[C@@H](Cc1c[nH]c2ccccc12)C(=O)N[C@H](C(=O)N[C@@H](CCCCN)C(=O)N[C@@H](CCCNC(=N)N)C(=O)N[C@@H](CCCCN)C(=O)N[C@@H](CCCNC(=N)N)C(=O)N[C@@H](CCC(N)=O)C(=O)N[C@@H](CCC(N)=O)C(N)=O)[C@@H](C)CC)[C@@H](C)CC)[C@@H](C)O)[C@@H](C)O)C(C)C)C(C)C [melittin] the “Minimum Inhibitory Concentration, CRAB C3” value (CRAB C3) was 16 µg/mL, the “Minimum Inhibitory Concentration, CRAB C5” value (CRAB C5) was 16 µg/mL and the “Minimum Inhibitory Concentration, CRAB C1, MH Media” value (CRAB C1 [1]; MH media without serum, 37 °C) was 16 µg/mL. For the same compound, the “Minimum Inhibitory Concentration, CRAB C1” value (CRAB C1 [1]; [5]) was 16 µg/mL, the “Minimum Inhibitory Concentration, CRAB C2” value (CRAB C2) was 16 µg/mL and the “Minimum Inhibitory Concentration, CRAB C4” value (CRAB C4) was 8 µg/mL. The “Minimum Inhibitory Concentration, A. baumannii, MH Media” value ([2]; MH media without serum, 37 °C) was 16 µg/mL, the “Minimum Inhibitory Concentration, A. baumanii” value [2, 5] was 16 µg/mL and the “toxicity, HEK-293” value (HEK-293 cells) was “severe toxicity”. The “depolarization of intact CRAB C1” value (intact CRAB C1) was 86.4%, the “toxicity, HaCaT” value (HaCaT cells) was “severe toxicity” and the “GM (mean MIC of Gram-negative bacterial strains)” value [3] was 14 µg/mL. The “Minimum Inhibitory Concentration, A. baumannii, + Serum (50%)” value (A. baumannii) was 128 µg/mL, the “change of antibacterial activity in the presence of 50% human serum” value (CRAB C1 [4]; 50% human serum in MH media versus MH media, E. coli, A. baumannii, CRAB C1) was “lost antibacterial activity considerably” and the “Minimum Inhibitory Concentration, CRAB C1, + Serum (50%)” value (CRAB C1 [4]; 50% human serum in MH medium, 16 h, 37 °C, measure of serum stability) was 256 µg/mL.
